Assay results reported in article PMC9841981 (Journal of Medicinal Chemistry, 2022).

Tests used:
[1] = test system: P. aeruginosa ΔpvdFΔpchA strain; assay: Antimicrobial susceptibility assay; conditions: iron-restricted CAA medium, MIC assay, 24 and 48 h
[2] = test system: P. aeruginosa; assay: MIC assay in CAA medium supplemented with ferric iron; format: cell-based, Pseudomonas aeruginosa; conditions: CAA medium supplemented with ferric iron (100 μM)
[3] = test system: P. aeruginosa ΔpvdFΔpchA with additional deletion of pfeA; assay: Growth kinetics, additional deletion of pfeA; format: cell-based, Pseudomonas aeruginosa; conditions: 10 μM, CAA medium, 30 °C, 48 h, three independent biological replicates

CNC(C)C1CCC(N)C(OC2C(N)CC(N)C(OC3OCC(C)(O)C(NC)C3O)C2O)O1 (stereo not drawn) [Gentamicin]
growth inhibition / antimicrobial activity (in words) [1]: exhibited an activity in the expected range

C#CCNC(=O)CN1CCN(CC(=O)NCCNC(=O)c2cccc(O)c2O)CCN(CC(=O)NCCNC(=O)c2cccc(O)c2O)CCN(CC(=O)NCCNC(=O)c2cccc(O)c2O)CC1 [Compound 2, Alkyne-DOTAM-OH]
antimicrobial effect in the presence of excess ferric iron [2]: lost their antimicrobial effect

C#CCCCC(=O)Nc1c(CNC(=O)c2cccc(O)c2O)cc(CNC(=O)c2cccc(O)c2O)cc1CNC(=O)c1cccc(O)c1O [Compound 4, Alkyne-MECAM-OH]
growth in the strain lacking PfeA (OD 600 nm) [3]: delayed growth slightly
